Laboratory results from US12622899B2 (PureTech LYT 100, Inc., priority 2018, dated 2026).
Several values for one entry are separate records, joined by “and”; a condition that tells them apart may be missing. Equal values may be shown once. Read-outs that look alike come from different tables or passages of the source.

Assays:
[1] = test system: rat BLM induced lung fibrosis model; assay: Rat bleomycin induced lung fibrosis model, Phase II (efficacy); settings: bleomycin rats, LYT-100 400 mg/kg QD / nintedanib 60 mg/kg BID
Description: For Groups 4, 5, 6, and 7, bleomycin and vehicle dosing were conducted as indicated in Table 28 (0.45 mg/kg, at 1696 IU/mg of Bleomycin or saline on Day 1, 2, 3, 6 and 7).

clinical = settings: both sexes, human, in vivo, 550 mg
Description: (§1) Over-encapsulation was utilized to maintain study blind. […] Approximately 50 older healthy female and male adult subjects (1:1 ratio) were randomized into 1 of 2 cohorts:Cohort 1 or Cohort 2, N=˜25 subjects per cohort.
There was a single AM fasting dose on Day 4 for both drugs. There was a 6-day wash-out period between drug cross-over.
Subjects were discharged on Day 4 following successful completion of all assessments and at the Investigator's discretion.
Subjects were then administered a single dose of their randomized treatment on the morning of Day 14 following an overnight fast of at least 8 hours. Subjects were discharged on Day 14 following successful completion of all assessments and at the Investigator's discretion.
An evening snack was served ≥3 hours following evening study medication administration. On Day 4 (Treatment Period 1) and Day 14 (Treatment Period 2), subjects were administered their assigned study drug once in the morning following an overnight fast of at least 8 hours (with approximately 240 mL of non-carbonated water). No additional fluids were allowed during the 1 hour pre- and post-dose.
Blood samples for PK were collected for Cohorts 1 and 2 at specified times during both periods, as follows: • Days 1 & 11:0 (pre-morning dose) • Days 2 & 12: no sampling. • Days 3 & 13:0 (pre-morning dose), and 1, 2, 3, 4, 6 (pre-mid-day dose), 7, 8, 9, 10, 12 (pre-evening dose), 13, 14, 15, 16, and 17 hours post-morning dose • Days 4 & 14:0 (pre-morning dose), and 1, 2, 3, 4, 6 (post-dose),

[2] = study PIPF-005, 801 mg three times daily (2403 mg/day), healthy older subjects; cited from earlier work
CYP2D6 = target: T1, CYP2D6 (Homo sapiens, UniProt P10635); assay: In vitro stability with recombinant human CYP2D6; assay type: in vitro ADME; settings: recombinant human isozyme; read-out: t1/2 following incubation with CYP2D6 (converted)
T1 construct: host or cells: heterologous cell systems (not specified)
Description: (§2) The half-life (t½) of each test article was determined.

[3] = test system: patients with Idiopathic Pulmonary Fibrosis (IPF); assay: IPF trial Part A: clinical laboratory parameters, liver; assay type: in vivo, human; settings: 801 mg TID (N = 63), N1 62
patients with IPF [4] = settings: cited from earlier work
patients with IPF [5] = settings: cited from earlier work; for patients with IPF progression (decline ≥10% in % FVC or death over 52 weeks): Nathan 2018
CYP1A2 = target: T2, CYP1A2 (Homo sapiens, UniProt P05177); assay: In vitro stability with recombinant human CYP1A2; assay type: in vitro ADME; settings: recombinant human isozyme; read-out: t1/2 following incubation with CYP1A2 (converted)
T2 construct: host or cells: heterologous cell systems (not specified)
T2 sequence (P05177 1-516): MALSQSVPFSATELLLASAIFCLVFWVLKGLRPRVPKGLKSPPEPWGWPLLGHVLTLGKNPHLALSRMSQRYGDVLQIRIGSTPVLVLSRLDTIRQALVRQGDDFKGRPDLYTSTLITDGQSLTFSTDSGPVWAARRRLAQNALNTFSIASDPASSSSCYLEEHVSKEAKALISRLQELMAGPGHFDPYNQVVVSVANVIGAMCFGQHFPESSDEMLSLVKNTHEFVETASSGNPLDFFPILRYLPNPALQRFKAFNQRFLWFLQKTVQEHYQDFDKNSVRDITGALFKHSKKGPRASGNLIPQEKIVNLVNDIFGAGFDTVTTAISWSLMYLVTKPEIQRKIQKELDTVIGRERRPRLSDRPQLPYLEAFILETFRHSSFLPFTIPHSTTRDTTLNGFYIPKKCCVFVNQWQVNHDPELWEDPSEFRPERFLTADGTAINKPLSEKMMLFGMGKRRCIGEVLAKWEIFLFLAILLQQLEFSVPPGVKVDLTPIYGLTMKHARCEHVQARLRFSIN
Description: as §2

CYP2C19 = target: T3, CYP2C19 (Homo sapiens, UniProt P33261); assay: In vitro stability with recombinant human CYP2C19; assay type: in vitro ADME; settings: recombinant human isozyme; read-out: t1/2 following incubation with CYP2C19 (converted)
T3 construct: host or cells: heterologous cell systems (not specified)
Description: as §2

[6] = test system: patients with Idiopathic Pulmonary Fibrosis (IPF); assay: IPF trial Part A: safety and tolerability (TEAEs, AESI, dose modifications, discontinuations); assay type: in vivo; settings: 801 mg TID (N = 63)
Description: The primary objective was to determine the dose(s) to carry into Phase 3. […] Patients were randomized to one of the four treatments in a 1:1:1:1 ratio and stratified based on prior exposure to nintedanib (<6 months) versus nintedanib-naïve patients. Patients who completed the Double-blind Treatment Period (Part A) were offered participation in the Long-term Extension (Part B). […] For patients who participated in Part B, the follow-up was conducted at the end of Part B. A graphical illustration of an embodiment of the trial design is provided as FIG. 24B.
Safety endpoints included: Adverse events, concomitant medications, clinical laboratory findings (chemistry, hematology, urinalysis), physical examinations, ECGs, and vital signs. These will be summarized descriptively, where appropriate.
Tolerability endpoints included: Frequency of dose modifications (reductions and interruptions), time to first dose modification, (reduction or interruption), duration of adverse events of special interest, time to treatment discontinuation due to an adverse event of special interest and patient reported assessment of IPF symptoms, side-effects, severity, change and satisfaction.
In this study, AEs are reported for all patients from the time of consent until the completion of the Follow-up visit. AEs reported prior to the first dose are denoted as pre-treatment. SAEs are reported for all patients (randomized or not) from the time of consent. AEs reported from the time of consent to confinement on Day 0 were recorded as pre-treatment AEs.
Treatment emergent adverse events (TEAEs) are defined as an AE that occurs following first dose of study medication and were evaluated from the first administration of study drug on Day 1 until the Follow-up visit. […]
This study evaluated in particular the tolerability based on prioritized gastrointestinal adverse events (GI AEs). […]

older, healthy subjects = assay: Crossover study Part 2: safety and tolerability (TEAEs), fed and fasted; assay type: in vivo, human
Excerpt: as §1, with “cohort. Subjects in each cohort were randomized to treatment sequence as follows: • Sequence A: Pirfenidone to LYT-100 • Sequence B: LYT-100 to pirfenidone” for “cohort.”

[7] = observational study (Cottin 2018)
[8] = pooled phase 3 (Noble 2016), one year, vs placebo

T1 sequence (P10635 whole entry): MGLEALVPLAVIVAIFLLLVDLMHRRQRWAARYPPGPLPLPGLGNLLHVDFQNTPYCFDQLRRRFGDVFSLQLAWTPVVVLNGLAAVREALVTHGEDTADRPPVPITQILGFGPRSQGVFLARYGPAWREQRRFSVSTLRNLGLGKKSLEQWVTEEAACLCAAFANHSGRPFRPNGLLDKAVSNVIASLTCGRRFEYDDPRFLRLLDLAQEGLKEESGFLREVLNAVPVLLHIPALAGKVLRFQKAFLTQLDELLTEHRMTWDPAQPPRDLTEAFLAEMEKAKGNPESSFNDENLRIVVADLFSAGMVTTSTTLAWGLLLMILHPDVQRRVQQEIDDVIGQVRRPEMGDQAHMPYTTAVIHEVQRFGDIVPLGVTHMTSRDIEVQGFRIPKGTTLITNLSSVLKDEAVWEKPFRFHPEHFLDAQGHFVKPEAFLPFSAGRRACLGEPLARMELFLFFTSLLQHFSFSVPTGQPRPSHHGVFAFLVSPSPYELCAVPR
T3 sequence (P33261 whole entry): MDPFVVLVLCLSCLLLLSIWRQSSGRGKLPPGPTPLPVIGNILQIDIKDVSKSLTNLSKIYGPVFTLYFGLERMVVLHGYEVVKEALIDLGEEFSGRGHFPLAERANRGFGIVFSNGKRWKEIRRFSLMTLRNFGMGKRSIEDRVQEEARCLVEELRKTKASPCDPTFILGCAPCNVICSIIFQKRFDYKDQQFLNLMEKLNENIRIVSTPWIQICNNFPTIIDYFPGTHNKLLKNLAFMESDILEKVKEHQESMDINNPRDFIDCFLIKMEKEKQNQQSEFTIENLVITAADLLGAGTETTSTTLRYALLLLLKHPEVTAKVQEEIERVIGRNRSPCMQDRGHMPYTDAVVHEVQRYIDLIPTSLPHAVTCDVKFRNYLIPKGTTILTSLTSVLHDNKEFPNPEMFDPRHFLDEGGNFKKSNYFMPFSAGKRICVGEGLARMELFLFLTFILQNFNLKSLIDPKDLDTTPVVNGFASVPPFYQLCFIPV

## COC(=O)c1ccc2c(c1)NC(=O)/C2=C(\Nc1ccc(N(C)C(=O)CN2CCN(C)CC2)cc1)c1ccccc1 [Nintedanib, nintedanib, reference compound]
[1]; Day 8-27
  hydroxyproline content (μg per mg of wet lung) vs bleomycin/vehicle: reduced hydroxyproline content
  lung fibrosis scores (histopathology) vs bleomycin/vehicle: did not affect the fibrosis scores
  lung sections with fibrosis Score 1: 37%
  lung sections with fibrosis Score 2: 33%
  lung weight ratio (% of body weight) vs bleomycin/vehicle: trend for lower lung weight ratios
  mean lung weight vs bleomycin/vehicle: reduced lung weight
  median lung fibrosis scores vs bleomycin/vehicle: reduced median fibrosis scores
  total left lung hydroxyproline (μg per left lung) vs bleomycin/vehicle: lower levels of total hydroxyproline
[1]; oral gavage Day 8-27
  body weight gain: showed modest improvement after Day 8 and the rate of body weight gain remained slower compared with the other groups

## Cc1ccc(=O)n(-c2ccccc2)c1 [Pirfenidone, pirfenidone, reference compound]
clinical; AUC0-24, parent
  AUC(0-t): 44100 ng·h/mL
clinical; Cmax, parent
  Cmax: 12700 ng/mL
[2]
  Cmax: 11850 ng/mL
CYP2D6
  half-life: 2.3 h
[3]
  Alanine Aminotransferase (U/L) at Worst Post-Baseline, 3-5 ULN: 1 (1.6) n (%)
  Alanine Aminotransferase (U/L) at Worst Post-Baseline, 5-8 ULN: 0 n (%)
  Alanine Aminotransferase (U/L) at Worst Post-Baseline, >8 ULN: 0 n (%)
  Alanine Aminotransferase (U/L) at Worst Post-Baseline, Total (>3 ULN): 1 (1.6) n (%)
  Alanine Aminotransferase or Aspartate Aminotransferase (U/L) at Worst Post-Baseline, 3-5 ULN: 1 (1.6) n (%)
  Alanine Aminotransferase or Aspartate Aminotransferase (U/L) at Worst Post-Baseline, 5-8 ULN: 0 n (%)
  Alanine Aminotransferase or Aspartate Aminotransferase (U/L) at Worst Post-Baseline, >8 ULN: 0 n (%)
  Alanine Aminotransferase or Aspartate Aminotransferase (U/L) at Worst Post-Baseline, Total (>3 ULN): 1 (1.6) n (%)
  Aspartate Aminotransferase (U/L) at Worst Post-Baseline, 3-5 ULN: 0 n (%)
  Aspartate Aminotransferase (U/L) at Worst Post-Baseline, 5-8 ULN: 0 n (%)
  Aspartate Aminotransferase (U/L) at Worst Post-Baseline, >8 ULN: 0 n (%)
  Aspartate Aminotransferase (U/L) at Worst Post-Baseline, Total (>3 ULN): 0 n (%)
Patients with IPF [4]; [7]
  discontinuations due to adverse events associated with pirfenidone: 27.9%
  patients on a lower dose by two years: 13.8%
  patients who had discontinued treatment by two years: 64.9%
Patients with IPF [4]; observational study of 1,009 IPF patients (Cottin 2018), FIG. 1B
  patients still on full dose (2,403 mg/day) by two years: 21.3% and 21%
Patients with IPF [5]; <90% dose intensity
  patients with IPF progression (decline ≥10% in % FVC or death over 52 weeks): 21.6%
Patients with IPF [5]; >90% dose intensity
  patients with IPF progression (decline ≥10% in % FVC or death over 52 weeks): 11.6%
Patients with IPF [5]; pooled phase 3 (Nathan 2018)
  rate of permanent dose reductions: 31.5%
  rate of treatment discontinuation: 15.2%
Patients with IPF [5]; pooled phase 3 (Noble 2016), 1 year, vs placebo
  reduction of risk of death or disease progression: 38%
Patients with IPF [5]; pooled phase 3 (Noble 2016), 1 year
  FVC change, absolute difference vs placebo: 148 mL
Patients with IPF [5]; [8]
  increase in proportion of patients with no decline in FVC % predicted: 59.3%
  reduction in proportion of patients with ≥10% decline in FVC % predicted or death: 43.8%
Patients with IPF [5]; pooled phase 3 (Noble 2016), pirfenidone group
  mean change from baseline to 1 year in FVC: -216 mL
CYP1A2
  half-life: 3.18 h
CYP2C19
  half-life: 2.13 h
[6]
  Discontinued, Primary Reason: Death: 0 n (%)
older, healthy subjects; Part 2
  deaths or serious AEs: No deaths or serious AEs
older, healthy subjects; in vivo
  TEAEs leading to study discontinuation, subjects: one
